Data as given in ChEMBL document CHEMBL1201862, “PubChem BioAssay data set” (2004).
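These data come from cells grown in 96-well plates and exposed to compound for 48 hours at five concentrations. GI50 = concentration required for 50% inhibition of growth.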 Activity calls are given as the source filed them. No stated cut-off is given here; in the data, active = GI50 up to about 1.1 µM and inactive = higher.

Columns and labels:
Assay in all cases: NCI-60 cell line screen, 48 h
SF-268 = test system: SF-268
CAKI-1 = test system: CAKI-1
SW-620 = test system: SW-620
NCI-H460 = test system: NCI-H460
SK-MEL-2 = test system: SK-MEL-2
HL-60 = test system: HL-60
A549 = test system: A549
SNB-75 = test system: SNB-75
SF-539 = test system: SF-539
786-0 = test system: 786-0
SR = test system: SR
NCI-H23 = test system: NCI-H23
OVCAR-5 = test system: OVCAR-5
OVCAR-4 = test system: OVCAR-4
HCC 2998 = test system: HCC 2998
LOX IMVI = test system: LOX IMVI
SK-MEL-28 = test system: SK-MEL-28
IGROV-1 = test system: IGROV-1
CCRF-CEM = test system: CCRF-CEM
MDA-MB-231 = test system: MDA-MB-231

Measured: GI50

CC(=O)Nc1ccc(C(=O)NN2C(=O)C(Cl)C2c2cc(Br)cc(Br)c2O)cc1 (stereo not drawn)
inactive: SF-268 > 100 µM | CAKI-1 > 100 µM | SW-620 > 100 µM | NCI-H460 > 100 µM | SK-MEL-2 > 100 µM | HL-60 > 100 µM | A549 > 100 µM | SNB-75 37.3 µM | SF-539 > 100 µM | 786-0 > 100 µM | SR > 100 µM | NCI-H23 > 100 µM | OVCAR-5 > 100 µM | OVCAR-4 > 100 µM | HCC 2998 > 100 µM | LOX IMVI > 100 µM | SK-MEL-28 > 10 µM | IGROV-1 52.6 µM | CCRF-CEM > 100 µM

C=CCOC(=O)C1=C(CCC[C@@H](C)O[Si](C)(C)C(C)(C)C)N=C(N)N2[C@H](CCO)CC[C@@H]12
inactive: SF-268 17.3 µM | CAKI-1 13.4 µM | NCI-H460 12.9 µM | SK-MEL-2 15.3 µM | A549 10.3 µM | SNB-75 16.4 µM | 786-0 17.9 µM | NCI-H23 17.7 µM | OVCAR-4 10.5 µM | HCC 2998 18.7 µM | SK-MEL-28 17.5 µM | MDA-MB-231 15.3 µM

Brc1ccc(/N=N/N2CCCCC2)cc1
inactive: SF-268 66.1 µM | CAKI-1 88.1 µM | SW-620 52.7 µM | NCI-H460 45 µM | SK-MEL-2 20.3 µM | SNB-75 41.9 µM | SF-539 > 100 µM | 786-0 44.3 µM | SR 16.6 µM | NCI-H23 62.1 µM | OVCAR-5 80.7 µM | OVCAR-4 74.8 µM | LOX IMVI 35.7 µM | IGROV-1 44.6 µM | MDA-MB-231 > 100 µM | CCRF-CEM 22.2 µM

COC(c1cccc(C(O)(C(F)(F)F)C(F)(F)F)c1)(C(F)(F)F)C(F)(F)F
inactive: SF-268 23.7 µM | CAKI-1 24.4 µM | SW-620 18.8 µM | NCI-H460 18.3 µM | SK-MEL-2 18.2 µM | A549 16.6 µM | SNB-75 17.5 µM | SF-539 19.2 µM | 786-0 17.6 µM | SR 32.1 µM | NCI-H23 19.7 µM | OVCAR-5 18.4 µM | OVCAR-4 16.7 µM | HCC 2998 8.79 µM | LOX IMVI 17.5 µM | SK-MEL-28 > 10 µM | IGROV-1 20.2 µM

COc1cc(Nc2cc(Cl)cc(Cl)c2)nc(N)n1
inactive: SF-268 19.5 µM | CAKI-1 20.4 µM | SW-620 19.7 µM | NCI-H460 16.6 µM | SK-MEL-2 14.3 µM | A549 19.9 µM | SNB-75 15.5 µM | SF-539 15.7 µM | 786-0 17.4 µM | NCI-H23 20.3 µM | OVCAR-5 40 µM | OVCAR-4 17.9 µM | HCC 2998 16.6 µM | LOX IMVI 16.3 µM | IGROV-1 18.6 µM | MDA-MB-231 18.9 µM | CCRF-CEM 17.6 µM

NCCCN(CCCCN(CCCN)C(=O)OCc1ccccc1)C(=O)OCc1ccccc1
inactive: SF-268 35.3 µM | CAKI-1 > 100 µM | SW-620 > 100 µM | NCI-H460 88.9 µM | SK-MEL-2 > 100 µM | HL-60 29.8 µM | A549 > 100 µM | SNB-75 56.8 µM | SF-539 > 100 µM | 786-0 > 100 µM | NCI-H23 > 100 µM | OVCAR-5 > 100 µM | OVCAR-4 > 100 µM | HCC 2998 50 µM | LOX IMVI 39.8 µM | SK-MEL-28 > 100 µM | IGROV-1 24.2 µM | MDA-MB-231 35.6 µM | CCRF-CEM 47 µM

COc1cccc(NC(=O)CC(=O)n2nc(C)c(/N=N/c3ccccc3)c2C)c1
inactive: SF-268 > 100 µM | CAKI-1 > 100 µM | SW-620 > 100 µM | A549 > 100 µM | SNB-75 47.8 µM | SF-539 > 100 µM | 786-0 > 100 µM | SR 78.7 µM | NCI-H23 > 100 µM | OVCAR-4 > 100 µM | HCC 2998 > 100 µM | LOX IMVI 83.6 µM | SK-MEL-28 > 100 µM | IGROV-1 > 100 µM

O=C(CCc1nnc(S)[nH]1)Nc1cccc(C(F)(F)F)c1
inactive: SF-268 > 100 µM | CAKI-1 > 100 µM | SW-620 11.2 µM | NCI-H460 > 100 µM | SK-MEL-2 > 100 µM | HL-60 > 100 µM | A549 > 100 µM | SNB-75 > 100 µM | SF-539 > 100 µM | 786-0 > 100 µM | SR > 100 µM | NCI-H23 > 100 µM | OVCAR-5 > 100 µM | OVCAR-4 > 100 µM | HCC 2998 > 100 µM | LOX IMVI > 100 µM | SK-MEL-28 > 100 µM | IGROV-1 > 100 µM | CCRF-CEM > 100 µM

CCOC(=O)/C(C(=O)Nc1ccc(Cl)cc1)=C(/N)N1CCOCC1
inactive: SF-268 > 100 µM | CAKI-1 > 100 µM | SW-620 > 100 µM | NCI-H460 > 100 µM | SK-MEL-2 > 100 µM | HL-60 > 100 µM | A549 > 100 µM | SNB-75 > 100 µM | SF-539 > 100 µM | 786-0 > 100 µM | NCI-H23 > 100 µM | OVCAR-5 > 100 µM | OVCAR-4 > 100 µM | HCC 2998 > 100 µM | LOX IMVI > 100 µM | SK-MEL-28 > 100 µM | IGROV-1 > 100 µM | MDA-MB-231 > 100 µM | CCRF-CEM > 100 µM

COC1OC2COC(c3ccccc3)OC2C(O)C1OC(=S)c1ccccc1 (stereo not drawn)
inactive: SF-268 > 100 µM | CAKI-1 24.4 µM | SW-620 45.3 µM | NCI-H460 28.6 µM | SK-MEL-2 53.3 µM | SF-539 35.2 µM | SR 42.9 µM | NCI-H23 59.7 µM | OVCAR-5 > 100 µM | OVCAR-4 73.6 µM | SK-MEL-28 26.9 µM | IGROV-1 32.4 µM | MDA-MB-231 36.7 µM | CCRF-CEM 19.9 µM
active: A549 0.607 µM | LOX IMVI 0.244 µM

CCC(COC(=O)CC[C@@H](NC(=O)C(C)NC(=O)C(C)OC1C(O)C(CO)OC(OCc2ccccc2)C1NC(C)=O)C(N)=O)NC1c2ccccc2Nc2cccc([N+](=O)[O-])c21 (stereo partly drawn)
inactive: SF-268 > 100 µM | CAKI-1 > 100 µM | SW-620 > 100 µM | NCI-H460 54 µM | SK-MEL-2 > 100 µM | HL-60 > 100 µM | A549 > 100 µM | SNB-75 94.8 µM | SF-539 > 100 µM | 786-0 67.1 µM | SR > 100 µM | NCI-H23 > 100 µM | OVCAR-5 > 100 µM | OVCAR-4 > 100 µM | HCC 2998 > 100 µM | LOX IMVI > 100 µM | SK-MEL-28 > 100 µM | IGROV-1 > 100 µM | CCRF-CEM > 100 µM

NCOC(=O)Cc1ccc(Br)cc1
inactive: SF-268 > 100 µM | SW-620 > 100 µM | NCI-H460 > 100 µM | SK-MEL-2 > 100 µM | HL-60 42.3 µM | A549 > 100 µM | SNB-75 > 100 µM | SF-539 > 100 µM | 786-0 > 100 µM | NCI-H23 > 100 µM | OVCAR-5 > 100 µM | LOX IMVI > 100 µM | SK-MEL-28 > 100 µM | IGROV-1 > 100 µM | MDA-MB-231 > 100 µM | CCRF-CEM 80 µM
active: SR 0.383 µM

O=C(CSSCC(=O)Nc1ccc(Br)cc1)Nc1ccc(Br)cc1
inactive: SF-268 13.7 µM | CAKI-1 24.2 µM | SW-620 15.2 µM | NCI-H460 16.9 µM | HL-60 16.9 µM | A549 16.8 µM | SNB-75 20.7 µM | SF-539 17.6 µM | 786-0 17.6 µM | SR 10.3 µM | NCI-H23 19.3 µM | OVCAR-5 18.2 µM | OVCAR-4 20 µM | HCC 2998 22.1 µM | LOX IMVI 10.8 µM | SK-MEL-28 18.5 µM | IGROV-1 18.2 µM

CC(=O)c1ccc(NC(=O)C(=O)C(C#N)CC(C)(C)C=O)cc1 (stereo not drawn)
inactive: SF-268 > 100 µM | CAKI-1 > 100 µM | SW-620 > 100 µM | NCI-H460 > 100 µM | SK-MEL-2 > 100 µM | HL-60 > 100 µM | A549 > 100 µM | SF-539 > 100 µM | 786-0 > 100 µM | SR > 100 µM | NCI-H23 > 100 µM | OVCAR-5 > 100 µM | OVCAR-4 > 100 µM | HCC 2998 > 100 µM | LOX IMVI > 100 µM | SK-MEL-28 > 100 µM | IGROV-1 > 100 µM | CCRF-CEM > 100 µM

Cc1nc(O)nc(N/N=C/c2ccc(Cl)cc2)c1C(=O)NC(C)(CO)CO
inactive: SF-268 > 100 µM | CAKI-1 > 100 µM | SW-620 > 100 µM | NCI-H460 > 100 µM | SK-MEL-2 > 100 µM | HL-60 > 100 µM | SNB-75 > 100 µM | SR > 100 µM | NCI-H23 > 100 µM | OVCAR-5 > 100 µM | OVCAR-4 > 100 µM | HCC 2998 > 100 µM | LOX IMVI > 100 µM | SK-MEL-28 > 100 µM | IGROV-1 > 100 µM | CCRF-CEM > 100 µM

O=C1N/C(=N/N=C/C(O)C(O)C(O)CO)N/C1=C\c1ccco1 (stereo not drawn)
inactive: SF-268 > 100 µM | CAKI-1 > 100 µM | SW-620 > 100 µM | NCI-H460 > 100 µM | HL-60 > 100 µM | A549 64.6 µM | SNB-75 > 100 µM | SF-539 > 100 µM | 786-0 > 100 µM | NCI-H23 > 100 µM | OVCAR-5 > 100 µM | OVCAR-4 > 100 µM | HCC 2998 > 100 µM | LOX IMVI > 100 µM | SK-MEL-28 > 100 µM | IGROV-1 > 100 µM | MDA-MB-231 > 100 µM | CCRF-CEM 93.1 µM
